Earlier results as cited in patent US4177199A, “Silver salts of phosphanilic acid” (Bristol-Myers Company, priority 1978, dated 1979).

Assays:
[1] = system: experimental tuberculosis
[2] = system: tuberculosis
[3] = laboratory animals
[4] = laboratory animals; remark: listed apart in the source
[5] = system: Histoplasma capsulatum; conditions: mouse, in vivo, iv
[6] = by admixture or salt formation
[7] = system: a variety of bacterial species
[8] = system: Plasmodium berghei; conditions: mice infected with Plasmodium berghei
[9] = system: S. typhosa; conditions: mice infected with S. typhosa
[10] = system: Ps. fluorescens; conditions: mice infected with Ps. fluorescens

Nc1ccc(P(=O)(O)O)cc1 [phosphanilic acid]
effect in vivo against experimental tuberculosis [1]: no effect
tubercularstatic activity in vitro [2]: good
absorption [3]: poor
toxicity [4]: low
protective effect against Histoplasma capsulatum infection [5]: some protective effect
potentiation of various tetracycline antibiotics [6]: potentiation
in vitro activity among compounds tested ([7]; aromatic phosphonic and phosphinic acids): generally the most active of the compounds tested
activity compared with sulfathiazole ([7]; molar basis): approached that of sulfathiazole
efficacy in vivo in infected mice [8]: effective
efficacy in vivo in infected mice [9]: effective
efficacy in vivo in infected mice [10]: effective
